Experimental data: patent publication US8785436B2, “1,3-oxazines as BACE 1 and/or BACE2 inhibitors” (Hoffmann-La Roche Inc., priority 2011, dated 2014)
Counter-ions that a name gives are not always drawn.

Biological target: T1, BACE1 (Homo sapiens, UniProt P56817)
T1 construct: Human HEK293 cells which are stably transfected with a vector expressing a cDNA of the human APP wt gene (APP695); endogenous in cells; host or cells: HEK293 cells stably expressing human APP695 wt
Assay: Cellular Aβ-lowering assay b) (Abeta 40 AlphaLISA, HEK293 APP cells)
Format: cell-based
Settings: 18-20 hrs incubation, read-out: BACE1 cell act. Aβ40 IC50
Protocol: Cellular Aβ-Lowering Assay:
b) Alternatively, the Abeta 40 AlphaLISA Assay can be used. The HEK293 APP cells were seeded in 96 well Microtiter plates in cell culture medium (Iscove's, plus 10% (v/v) fetal bovine serum, penicillin/streptomycin) to about 80% confluency and the compounds were added at a 3× concentration in 1/3 volume of culture medium (final DMSO concentration was kept at 1% v/v). After 18-20 hrs incubation at 37° C. and 5% CO2 in a humidified incubator, the culture supernatants were harvested for the determination of Aβ 40 concentrations using Perkin-Elmer Human Amyloid beta 1-40 (high specificity) Kit (Cat# AL275C).
In a Perkin-Elmer White Optiplate-384 (Cat#6007290), 2 ul culture supernatants were combined with 2 μl of a 10× AlphaLISA Anti-hAβ Acceptor beads+Biotinylated Antibody Anti-Aβ 1-40 Mix (50 μg/mL/5 nM). After 1 hour room temperature incubation, 16 μl of a 1.25× preparation of Streptavidin (SA) Donor beads (25 μg/mL) were added and incubated for 30 minutes in the Dark. Light Emission at 615 nm was then recorded using EnVision-Alpha Reader. Levels of Aβ 40 in the culture supernatants were calculated as percentage of maximum signal (cells treated with 1% DMSO without inhibitor). The IC50 values were calculated using the Excel XLfit software.

T1 sequence (P56817 46-501): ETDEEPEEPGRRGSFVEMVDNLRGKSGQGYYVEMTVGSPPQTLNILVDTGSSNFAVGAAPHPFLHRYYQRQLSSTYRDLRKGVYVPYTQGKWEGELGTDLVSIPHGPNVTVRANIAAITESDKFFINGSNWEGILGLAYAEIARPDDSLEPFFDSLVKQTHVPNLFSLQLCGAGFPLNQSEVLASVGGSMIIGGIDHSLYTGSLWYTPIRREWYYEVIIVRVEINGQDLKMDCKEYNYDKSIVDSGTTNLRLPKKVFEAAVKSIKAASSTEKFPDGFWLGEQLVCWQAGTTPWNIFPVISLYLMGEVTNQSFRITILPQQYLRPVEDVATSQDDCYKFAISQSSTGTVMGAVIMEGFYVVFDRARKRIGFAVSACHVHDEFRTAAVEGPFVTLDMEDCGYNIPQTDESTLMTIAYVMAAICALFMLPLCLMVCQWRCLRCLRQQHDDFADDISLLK

| IC50 [µM] | Compound |
| --- | --- |
| 1.21 | CC1(C)OC(N)=N[C@](C)(c2cc(NC3CCC(c4ccccc4)C3)ccc2F)C1(F)F (mixture of isomers) [Example 49, (R)-5,5-Difluoro-4-[2-fluoro-5-((1RS,3RS)-3-phenyl-cyclopentylamino)-phenyl]-4,6,6-trimethyl-5,6-dihydro-4H-[1,3]oxazin-2-ylamine] |
| 3.7 | C[C@]1(c2cccc(OCC3CC3(F)F)c2)N=C(N)OCC1(F)F (mixture of isomers) [Example 57, (R)-4-[5-((RS)-2,2-Difluoro-cyclopropylmethoxy)-phenyl]-5,5-difluoro-4-methyl-5,6-dihydro-4H-[1,3]oxazin-2-ylamine] |
| 0.42 | C[C@]1(C2CC2C(=O)Nc2cccc3cc(Cl)cnc23)N=C(N)OCC1(F)F (stereo in doubt) [Example 62, (1S,2S)-rel-2-((R)-2-Amino-5,5-difluoro-4-methyl-5,6-dihydro-4H-[1,3]oxazin-4-yl)-cyclopropanecarboxylic acid(3-chloro-quinolin-8-yl)-amide] |
| 1.28 | C[C@]1(c2cc(-c3nc4ccc(Cl)cc4o3)c(F)cc2F)N=C(N)OCC1(F)F [Example 15, (R)-4-[5-(6-Chloro-benzooxazol-2-yl)-2,4-difluoro-phenyl]-5,5-difluoro-4-methyl-5,6-dihydro-4H-[1,3]oxazin-2-ylamine Hydrochloride] |
| 0.88 | C[C@]1(c2cc(-c3cncc(Cl)c3)c(F)cc2F)N=C(N)OCC1(F)F [Example 32, (R)-4-[5-(5-Chloro-pyridin-3-yl)-2,4-difluoro-phenyl]-5,5-difluoro-4-methyl-5,6-dihydro-4H-[1,3]oxazin-2-ylamine] |
| 0.38 | C[C@]1(c2cc(-c3cncnc3)c(F)cc2F)N=C(N)OCC1(F)F [Example 33, (R)-4-(2,4-Difluoro-5-pyrimidin-5-yl-phenyl)-5,5-difluoro-4-methyl-5,6-dihydro-4H-[1,3]oxazin-2-ylamine] |
| 4.17 | CC1(C)OC(N)=N[C@](C)(c2cc(Nc3cccc(C(F)(F)F)n3)ccc2F)C1(F)F [Example 47, (R)-5,5-Difluoro-4-[2-fluoro-5-(6-trifluoromethyl-pyridin-2-ylamino)-phenyl]-4,6,6-trimethyl-5,6-dihydro-4H-[1,3]oxazin-2-ylamine] |
| 2.88 | CC1(C)OC(N)=N[C@](C)(c2cc(-c3cc(C#N)ccc3Cl)ccc2F)C1(F)F [Example 52, 3′-((R)-2-Amino-5,5-difluoro-4,6,6-trimethyl-5,6-dihydro-4H-[1,3]oxazin-4-yl)-6-chloro-4′-fluoro-biphenyl-3-carbonitrile] |
| 0.502 | NC1=NC(c2cc(-c3cncc(Cl)c3)ccc2F)(C(F)F)CCO1 (stereo not drawn) [Example 53, 4-[5-(5-Chloro-pyridin-3-yl)-2-fluoro-phenyl]-4-difluoromethyl-5,6-dihydro-4H-[1,3]oxazin-2-ylamine] |
| 0.22 | NC1=N[C@@](c2cc(-c3cncc(Cl)c3)ccc2F)(C(F)F)CCO1 [Example 54B, (S)-4-[5-(5-Chloro-pyridin-3-yl)-2-fluoro-phenyl]-4-difluoromethyl-5,6-dihydro-4H-[1,3]oxazin-2-ylamine] |
| 1.45 | CCc1ccc(Cc2nc3ccc([C@@]4(C)N=C(N)OCC4(F)F)cc3[nH]2)cc1 [Example 55, (R)-4-[2-(4-Ethyl-benzyl)-3H-benzoimidazol-5-yl]-5,5-difluoro-4-methyl-5,6-dihydro-4H-[1,3]oxazin-2-ylamine] |
| 0.8 | C[C@]1(c2cc(NCc3cc(F)cc(F)c3)ccc2F)N=C(N)OC[C@@H]1F [Example 56, (4R,5R)-4-[5-(3,5-Difluoro-benzylamino)-2-fluoro-phenyl]-5-fluoro-4-methyl-5,6-dihydro-4H-[1,3]oxazin-2-ylamine] |
| 2.01 | C[C@]1(c2cccc(OCCC(F)(F)F)c2)N=C(N)OCC1(F)F [Example 58, (R)-5,5-Difluoro-4-methyl-4-[3-(3,3,3-trifluoro-propoxy)-phenyl]-5,6-dihydro-4H-[1,3]oxazin-2-ylamine] |
| 3.12 | C[C@]1(c2cccc(OCC3CC3)c2)N=C(N)OCC1(F)F [Example 59, (R)-4-(3-Cyclopropylmethoxy-phenyl)-5,5-difluoro-4-methyl-5,6-dihydro-4H-[1,3]oxazin-2-ylamine] |
| 4.62 | C[C@]1(c2cnn(-c3cccc(C#N)c3)c2)N=C(N)OCC1(F)F [Example 60, 3-[4-((R)-2-Amino-5,5-difluoro-4-methyl-5,6-dihydro-4H-[1,3]oxazin-4-yl)-pyrazol-1-yl]-benzonitrile] |
| 0.72 | C#Cc1cccc(-n2cc([C@@]3(C)N=C(N)OCC3(F)F)cn2)c1 [Example 61, (R)-4-[1-(3-Ethynyl-phenyl)-1H-pyrazol-4-yl]-5,5-difluoro-4-methyl-5,6-dihydro-4H-[1,3]oxazin-2-ylamine] |
| 0.36 | C[C@]1([C@@H]2C[C@H]2C(=O)Nc2cccc3cc(Cl)cnc23)N=C(N)OCC1(F)F [Example 63, (1R,2R)-((R)-2-Amino-5,5-difluoro-4-methyl-5,6-dihydro-4H-[1,3]oxazin-4-yl)-cyclopropanecarboxylic acid(3-chloro-quinolin-8-yl)-amide] |
| 0.18 | C[C@]1([C@@H]2C[C@H]2C(=O)Nc2csc3cc(C#N)cnc23)N=C(N)OCC1(F)F [Example 65, (1R,2R)-2-((R)-2-Amino-5,5-difluoro-4-methyl-5,6-dihydro-4H-[1,3]oxazin-4-yl)-cyclopropanecarboxylic acid(6-cyano-thieno[3,2-b]pyridin-3-yl)-amide] |
| 1.44 | C[C@]1(c2cnn(-c3cccc(Br)c3)c2)N=C(N)OCC1(F)F [Intermediate K7.1, (R)-4-[1-(3-bromo-phenyl)-1H-pyrazol-4-yl]-5,5-difluoro-4-methyl-5,6-dihydro-4H-[1,3]oxazin-2-ylamine] |

Biological target: T2, BACE2 (Rattus norvegicus, UniProt Q6IE75)
T2 construct: endogenous cellular BACE2 in the Ins1e rat cell line; endogenous in cells; host or cells: INS-TMEM27 (INS1e-derived rat cell line with TetOn-inducible full-length hTMEM27)
T2 sequence (Q6IE75 63-514): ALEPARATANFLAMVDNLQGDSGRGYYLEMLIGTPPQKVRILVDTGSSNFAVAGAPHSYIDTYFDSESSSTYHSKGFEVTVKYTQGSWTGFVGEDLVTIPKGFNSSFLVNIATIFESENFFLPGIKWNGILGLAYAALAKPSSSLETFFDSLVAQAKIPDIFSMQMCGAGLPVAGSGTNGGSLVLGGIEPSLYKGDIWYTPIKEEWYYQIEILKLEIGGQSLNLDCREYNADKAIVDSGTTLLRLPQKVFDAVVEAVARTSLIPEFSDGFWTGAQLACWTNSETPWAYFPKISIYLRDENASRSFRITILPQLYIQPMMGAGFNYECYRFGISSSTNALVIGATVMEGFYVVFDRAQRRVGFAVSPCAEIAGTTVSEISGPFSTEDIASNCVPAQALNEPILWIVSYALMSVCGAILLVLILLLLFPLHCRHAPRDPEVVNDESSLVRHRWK
Assay: BACE inhibition by measuring cellular TMEM27 cleavage (INS-TMEM27 cells, ELISA)
Format: cell-based
Settings: INS-TMEM27 (Ins1e rat) cells, shed human TMEM27 by ELISA; read-out: BACE2 cell act. IC50
Text: Assay for BACE Inhibition by Measuring Cellular TMEM27 Cleavage:
The assay uses the principle of inhibition of human TMEM27 cleavage by endogenous cellular BACE2 in the Ins1e rat cell line and shedding from the cell surface into the culture medium, followed by detection in an ELISA assay Inhibition of BACE2 prevents the cleavage and shedding in a dose-dependent manner.
The stable cell line “INS-TMEM27” represents an INS1e-derived cell line with inducible expression (using the TetOn system) of full-length hTMEM27 in a doxycycline-dependent manner. The cells are cultured throughout the experiment in RPMI1640+Glutamax (Invitrogen) Penicillin/Streptomycin, 10% Fetal bovine serum, […], […], 100 micrograms/ml G418 and 100 microgram/ml hygromycin and are grown inadherent culture at 37° C. in a standard CO2 cell culture incubator.
INS-TMEM27 cells are seeded in 96-well plates. After 2 days in culture, BACE2 inhibitor is added in a range of concentrations as required by the assay and after a further two hours, doxycycline is added to a final concentration of 500 ng/ml. The cells are incubated for a further 46 hours and the supernatant harvested for detection of shed TMEM27.
An ELISA assay (using a pair of mouse anti-human-TMEM27 antibodies, raised against the extracellular domain of TMEM27) is used for detection of TMEM27 in the culture medium. An EC50 for BACE2 inhibition is calculated using the ELISA readout for each inhibitor concentration with standard curve-fitting software such as XLFit for the Excel spreadsheet program.

| IC50 [µM] | Compound |
| --- | --- |
| 2.75 | CC1(C)OC(N)=N[C@](C)(c2cc(Nc3cccc(C(F)(F)F)n3)ccc2F)C1(F)F [Example 47, (R)-5,5-Difluoro-4-[2-fluoro-5-(6-trifluoromethyl-pyridin-2-ylamino)-phenyl]-4,6,6-trimethyl-5,6-dihydro-4H-[1,3]oxazin-2-ylamine] |
| 1.35 | C[C@]1([C@@H]2C[C@H]2C(=O)Nc2cccc3cc(Cl)cnc23)N=C(N)OCC1(F)F [Example 63, (1R,2R)-((R)-2-Amino-5,5-difluoro-4-methyl-5,6-dihydro-4H-[1,3]oxazin-4-yl)-cyclopropanecarboxylic acid(3-chloro-quinolin-8-yl)-amide] |
